Tests used:
[1] = biological target: T1, DGKα (Homo sapiens, UniProt P23743); assay: In vitro DGKα inhibition assay (ADP-Glo); type: biochemical; conditions: His-tagged human recombinant DGKα 0.1 nM, 50 μM ATP, 20 μM DLG, 90 minute incubation
T1 construct: His; purchased Signal Chem D21-10BH
Procedure, shortened: (§1)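 His-tagged human DGKα (0.1 nM, 50 μM ATP) or DGKζ (0.4 nM, 30 μM ATP), each with 20 μM DLG lipid substrate, in Tris pH 7.5 buffer with Mg2+, Ca2+, CHAPS.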

[2] = biological target: T2, DGKζ (Homo sapiens, UniProt Q13574); assay: In vitro DGKζ inhibition assay (ADP-Glo); type: biochemical; conditions: His-tagged human recombinant DGKζ 0.4 nM, 30 μM ATP, 20 μM DLG, 90 minute incubation
T2 construct: His; purchased Signal Chem D30-10H
T2 sequence (Q13574 whole entry): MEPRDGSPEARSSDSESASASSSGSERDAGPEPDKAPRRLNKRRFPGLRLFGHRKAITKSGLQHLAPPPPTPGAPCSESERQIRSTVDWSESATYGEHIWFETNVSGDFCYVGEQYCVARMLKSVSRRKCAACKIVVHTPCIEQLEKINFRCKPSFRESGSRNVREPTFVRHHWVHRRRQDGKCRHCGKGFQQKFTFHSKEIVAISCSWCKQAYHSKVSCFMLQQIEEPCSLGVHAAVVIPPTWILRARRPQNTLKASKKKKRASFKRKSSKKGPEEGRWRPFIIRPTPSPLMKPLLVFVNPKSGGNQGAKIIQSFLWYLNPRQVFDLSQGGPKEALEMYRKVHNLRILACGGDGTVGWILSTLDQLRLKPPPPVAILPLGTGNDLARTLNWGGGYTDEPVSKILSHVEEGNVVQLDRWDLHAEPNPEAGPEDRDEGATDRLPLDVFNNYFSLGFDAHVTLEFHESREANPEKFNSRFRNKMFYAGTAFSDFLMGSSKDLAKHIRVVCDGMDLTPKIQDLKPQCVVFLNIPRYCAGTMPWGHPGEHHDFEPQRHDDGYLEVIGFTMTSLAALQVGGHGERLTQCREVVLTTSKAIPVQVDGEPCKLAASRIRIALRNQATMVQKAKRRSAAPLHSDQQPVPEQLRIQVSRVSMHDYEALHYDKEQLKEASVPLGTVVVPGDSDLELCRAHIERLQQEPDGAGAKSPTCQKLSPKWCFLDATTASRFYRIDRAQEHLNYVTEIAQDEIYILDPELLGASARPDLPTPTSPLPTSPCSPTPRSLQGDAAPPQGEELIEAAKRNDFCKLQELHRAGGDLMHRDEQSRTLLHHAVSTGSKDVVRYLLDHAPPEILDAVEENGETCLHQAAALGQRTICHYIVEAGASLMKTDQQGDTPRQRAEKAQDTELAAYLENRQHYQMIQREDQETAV
Procedure, shortened: as §1

T1 sequence (P23743 whole entry): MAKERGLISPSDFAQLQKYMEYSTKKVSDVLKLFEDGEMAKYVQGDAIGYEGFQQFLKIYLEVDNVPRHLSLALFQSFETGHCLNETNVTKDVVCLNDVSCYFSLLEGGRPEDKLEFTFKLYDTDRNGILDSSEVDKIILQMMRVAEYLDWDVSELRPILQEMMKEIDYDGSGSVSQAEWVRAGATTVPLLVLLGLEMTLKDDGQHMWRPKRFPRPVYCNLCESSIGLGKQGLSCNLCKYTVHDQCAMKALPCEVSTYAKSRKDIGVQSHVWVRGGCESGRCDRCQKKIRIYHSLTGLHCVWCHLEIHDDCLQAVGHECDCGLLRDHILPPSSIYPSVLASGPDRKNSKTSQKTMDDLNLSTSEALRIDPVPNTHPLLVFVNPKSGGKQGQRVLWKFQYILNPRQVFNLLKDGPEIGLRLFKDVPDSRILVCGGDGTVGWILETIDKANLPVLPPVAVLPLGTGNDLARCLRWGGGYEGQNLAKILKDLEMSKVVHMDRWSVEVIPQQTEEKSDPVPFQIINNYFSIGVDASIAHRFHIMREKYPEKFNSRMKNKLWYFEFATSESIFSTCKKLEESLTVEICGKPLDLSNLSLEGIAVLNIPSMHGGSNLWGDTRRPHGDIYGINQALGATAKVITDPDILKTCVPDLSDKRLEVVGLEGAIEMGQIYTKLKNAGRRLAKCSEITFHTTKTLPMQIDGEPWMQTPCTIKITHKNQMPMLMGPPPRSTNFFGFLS

IC50 [1]	IC50 [2]	SMILES
< 20 nM	< 20 nM	Cc1nc2c(N3C[C@@H](C)N([C@H](c4ccc5cc(C(F)(F)F)ccc5n4)C(C)C)C[C@@H]3C)nc3nncn3c2n1C[C@@H]1CCCO1 [Example 63, 4-((2S,5R)-2,5-Dimethyl-4-((S)-2-methyl-1-(6-(trifluoromethyl)quinolin-2-yl)propyl)piperazin-1-yl)-2-methyl-1-(((S)-tetrahydrofuran-2-yl)methyl)-1H-[1,2,4]triazolo[3,4-b]purine]
< 20 nM	< 20 nM	Cc1nc2c(N3C[C@@H](C)N([C@H](c4ccc(Cl)cc4)C(C)C)C[C@@H]3C)cc3nncn3c2n1C[C@@H]1CCCO1 [Example 65, 4-((2S,5R)-4-((S)-1-(4-Chlorophenyl)-2-methylpropyl)-2,5-dimethylpiperazin-1-yl)-2-methyl-1-(((S)-tetrahydrofuran-2-yl)methyl)-1H-imidazo[4,5-e][1,2,4]triazolo[4,3-a]pyridine]
< 20 nM	< 20 nM	Cc1nc2c(N3C[C@@H](C)N([C@@H](c4ccc(Cl)cc4)C(C)C)C[C@@H]3C)cc3nncn3c2n1C[C@@H]1CCCO1 [Example 66, 4-((2S,5R)-4-((R)-1-(4-chlorophenyl)-2-methylpropyl)-2,5-dimethylpiperazin-1-yl)-2-methyl-1-(((S)-tetrahydrofuran-2-yl)methyl)-1H-imidazo[4,5-e][1,2,4]triazolo[4,3-a]pyridine]
< 20 nM	< 20 nM	CC(c1ccc(C(F)(F)F)cc1)N1C[C@H](C)N(c2nc3nncn3c3c2ncn3C[C@@H]2CCCO2)C[C@H]1C (stereo partly drawn) [Example 68, 4-((2S,5R)-2,5-Dimethyl-4-(1-(4-(trifluoromethyl)phenyl)ethyl)piperazin-1-yl)-1-(((S)-tetrahydrofuran-2-yl)methyl)-1H-[1,2,4]triazolo[3,4-b]purine]
< 20 nM	< 20 nM	Cc1nc2c(N3C[C@@H](C)N(Cc4ccc(C(F)(F)F)cc4F)C[C@@H]3C)cc3nncn3c2n1C[C@@H]1CCCO1 [Example 69, 4-((2S,5R)-4-(2-Fluoro-4-(trifluoromethyl)benzyl)-2,5-dimethylpiperazin-1-yl)-2-methyl-1-(((S)-tetrahydrofuran-2-yl)methyl)-1H-imidazo[4,5-e][1,2,4]triazolo[4,3-a]pyridine]
< 20 nM	< 20 nM	Cc1nc2c(N3C[C@@H](C)N(Cc4ccc(Cl)cc4F)C[C@@H]3C)nc3nncn3c2n1C[C@@H]1CCCO1 [Example 71, 4-((2S,5R)-4-(4-Chloro-2-fluorobenzyl)-2,5-dimethylpiperazin-1-yl)-2-methyl-1-(((S)-tetrahydrofuran-2-yl)methyl)-1H-[1,2,4]triazolo[3,4-b]purine]
< 20 nM	< 20 nM	CC[C@@H]1CN(c2nc3nncn3c3c2nc(C)n3C[C@@H]2CCCO2)[C@@H](C)CN1C(c1ccc(Cl)cc1)C1CC(F)(F)C1 (stereo partly drawn) [Example 78, 4-((2S,5R)-4-((4-Chlorophenyl)(3,3-difluorocyclobutyl)methyl)-5-ethyl-2-methylpiperazin-1-yl)-2-methyl-1-(((S)-tetrahydrofuran-2-yl)methyl)-1H-[1,2,4]triazolo[3,4-b]purine]

More lines, now with the values behind:

SMILES	IC50 [1]	IC50 [2]
CC[C@H](c1ccc(C(F)(F)F)cc1)N1C[C@H](C)N(c2nc3nncn3c3c2ncn3C[C@@H]2CCCO2)C[C@H]1C [Example 60, 4-((2S,5R)-2,5-dimethyl-4-((R)-1-(4-(trifluoromethyl)phenyl)propyl)piperazin-1-yl)-1-(((S)-tetrahydrofuran-2-yl)methyl)-1H-[1,2,4]triazolo[3,4-b]purine]	< 20 nM	< 20 nM
Cc1nc2c(N3C[C@@H](C)N([C@@H](c4ccc5cc(C(F)(F)F)ccc5n4)C(C)C)C[C@@H]3C)nc3nncn3c2n1C[C@@H]1CCCO1 [Example 64, 4-((2S,5R)-2,5-dimethyl-4-((R)-2-methyl-1-(6-(trifluoromethyl)quinolin-2-yl)propyl)piperazin-1-yl)-2-methyl-1-(((S)-tetrahydrofuran-2-yl)methyl)-1H-[1,2,4]triazolo[3,4-b]purine]	< 20 nM	< 20 nM
Cc1nc2c(N3C[C@@H](C)N(C(C)c4ccc(C(F)(F)F)cc4)C[C@@H]3C)nc3nncn3c2n1C[C@@H]1CCCO1 (stereo partly drawn) [Example 67, 4-((2S,5R)-2,5-Dimethyl-4-(1-(4-(trifluoromethyl)phenyl)ethyl)piperazin-1-yl)-2-methyl-1-(((S)-tetrahydrofuran-2-yl)methyl)-1H-[1,2,4]triazolo[3,4-b]purine]	< 20 nM	< 20 nM
Cc1nc2c(N3C[C@@H](C)N(Cc4ccc(Cl)cc4)C[C@@H]3C)nc3nncn3c2n1C[C@@H]1CCCO1 [Example 70, 4-((2S,5R)-4-(4-Chlorobenzyl)-2,5-dimethylpiperazin-1-yl)-2-methyl-1-(((S)-tetrahydrofuran-2-yl)methyl)-1H-[1,2,4]triazolo[3,4-b]purine]	< 20 nM	< 20 nM
Cc1nc2c(N3C[C@@H](C)N(Cc4ccc(Cl)c(Cl)c4)C[C@@H]3C)nc3nncn3c2n1C[C@@H]1CCCO1 [Example 72, 4-((2S,5R)-4-(3,4-Dichlorobenzyl)-2,5-dimethylpiperazin-1-yl)-2-methyl-1-(((S)-tetrahydrofuran-2-yl)methyl)-1H-[1,2,4]triazolo[3,4-b]purine]	< 20 nM	< 20 nM
Cc1nc2c(N3C[C@@H](C)N(Cc4c(F)cc(Cl)cc4F)C[C@@H]3C)nc3nncn3c2n1C[C@@H]1CCCO1 [Example 73, 4-((2S,5R)-4-(4-Chloro-2,6-difluorobenzyl)-2,5-dimethylpiperazin-1-yl)-2-methyl-1-(((S)-tetrahydrofuran-2-yl)methyl)-1H-[1,2,4]triazolo[3,4-b]purine]	< 20 nM	< 20 nM
Cc1nc2c(N3C[C@@H](C)N(Cc4cc(F)c(Cl)c(C(F)(F)F)c4)C[C@@H]3C)nc3nncn3c2n1C[C@@H]1CCCO1 [Example 74, 4-((2S,5R)-4-(4-Chloro-3-fluoro-5-(trifluoromethyl)benzyl)-2,5-dimethylpiperazin-1-y1)-2-methyl-1-(((S)-tetrahydrofuran-2-yl)methyl)-1H-[1,2,4]triazolo[3,4-b]purine]	< 20 nM	< 20 nM
Cc1nc2c(N3C[C@@H](C)N(Cc4ccc(C(F)(F)F)c(F)c4)C[C@@H]3C)nc3nncn3c2n1C[C@@H]1CCCO1 [Example 75, 4-((2S,5R)-4-(3-Fluoro-4-(trifluoromethyl)benzyl)-2,5-dimethylpiperazin-1-yl)-2-methyl-1-(((S)-tetrahydrofuran-2-yl)methyl)-1H-[1,2,4]triazolo[3,4-b]purine]	< 20 nM	< 20 nM
Cc1nc2c(N3C[C@@H](C)N(Cc4ccc(Cl)c(F)c4)C[C@@H]3C)nc3nncn3c2n1C[C@@H]1CCCO1 [Example 76, 4-((2S,5R)-4-(4-Chloro-3-fluorobenzyl)-2,5-dimethylpiperazin-1-yl)-2-methyl-1-(((S)-tetrahydrofuran-2-yl)methyl)-1H-[1,2,4]triazolo[3,4-b]purine]	< 20 nM	< 20 nM
C[C@@H]1CN(c2nc3nncn3c3c2ncn3C[C@@H]2CCCO2)[C@@H](C)CN1Cc1ccc(Cl)c(F)c1 [Example 77, 4-((2S,5R)-4-(4-Chloro-3-fluorobenzyl)-2,5-dimethylpiperazin-1-yl)-1-(((S)-tetrahydrofuran-2-yl)methyl)-1H-[1,2,4]triazolo[3,4-b]purine]	< 20 nM	< 20 nM

Source: patent US20250179083A1, “TRICYCLIC TRIAZOLO COMPOUNDS AS DGK INHIBITORS” (Incyte Corporation, priority 2023, published 2025)
